The values that follow come from patent US8389677B2, “Antioxidant polypeptide and a process for isolation and purification of the same” (Adichunchanagiri Biotechnology and Cancer Research Institute, priority 2010, dated 2013).

For one series, the system named is mice. The note with it: at more than 0.1% dose; cited from earlier work.
Another series concerns lipid peroxidation. As to the kind of experiment: Thio Barbituric Acid Reactive Substance (TBARS) antioxidant assay. The series is classed as biochemical. Conditions: concentration 400 μM. As to the method:
(§1) ATE containing 2 mg protein was loaded on to the Sephadex G-50 column (VT=240 ml, VO=80 ml) and eluted with 0.1M Tris HCl, pH −7.4 containing 0.1 M NaCl and flow rate was 1.7 ml/5 min, Fractions were monitored at 280 nm. Two peaks were obtained namely Peak I and Peak II. Peak II depicts the polypeptide of the present invention (Arishinin) as shown in FIG. 1 and the Gel filtration chromatography profile of Aqueous Turmeric Extract. Peak II was pooled, concentrated and dialyzed against double distilled water at 4° C. using 2 KDa cut off dialysis membrane for 74 hrs. […] The antioxidant activity was done by TBARS and Hydroxy radical scavenging assay compared to standard antioxidant like BHA, Curcumin and α-tocopherol as positive controls. Cell viability test by Tryphan blue exclusion method was done to test the toxicity of Arishinin.
(§2) The quantification of water-soluble antioxidant polypeptide Arishinin, isolated by the process described in Examples 1 to 4 (as depicted in Table 1 above) was determined by the following methods. Protein estimation was done by Bradford's method (Bradford, M. M., 1976, Analytical Biochem., […]) with an absorption maximum at 595 nm and results shown in Table 1. The antioxidant activity of Arishinin was evaluated by Thio Barbituric Acid Reactive Substance (TBARS) (Shimasaki, H., et al., 1984, Biochem. Biophys. Acta, 792:123-129) and Deoxyribose method/Hydroxyl radical scavenging assay (Halliwell, B., et al., 1981, Methods of Biochemical Sciences, 33:59-90) with absorption maximum at 535 nm by using BHA, alpha tocopherol and Curcumin as standard antioxidants.

The next series deals with hydroxyl radical. As to the kind of experiment: Deoxyribose method / Hydroxyl radical scavenging assay. The class given is biochemical. The note with it: concentration 400 μM. As to the method: as §1, §2

As for `Cc1cc(C(C)(C)C)c(O)c(C(C)(C)C)c1` [BHT, Butylated Hydroxy Toluene], the “carcinogenicity (fore-stomach tumour in mice)” value with mice is on record as “carcinogenic”.
For `COc1cc(/C=C/C(=O)CC(=O)/C=C/c2ccc(O)c(OC)c2)ccc1O` [Curcumin], in the series with lipid peroxidation, the “INHIBITION (%) TBARS” value was 72 ± 1.5%. Also, the “INHIBITION (%) Hydroxyl radical” value in the series with hydroxyl radical is listed as 68 ± 3%.
In the case of `Cc1c(C)c2c(c(C)c1O)CC[C@@](C)(CCC[C@H](C)CCC[C@H](C)CCCC(C)C)O2` [α-tocopherol], in the series on lipid peroxidation, the “INHIBITION (%) TBARS” value is listed as 92 ± 1%. In the series on hydroxyl radical, the “INHIBITION (%) Hydroxyl radical” value is reported as 88 ± 2%.
In the case of `COc1ccc(O)c(C(C)(C)C)c1` [BHA, Butylated Hydroxyl Anisole], the “INHIBITION (%) TBARS” value in the series with lipid peroxidation stood at 84 ± 1.5%. The “INHIBITION (%) Hydroxyl radical” value in the series with hydroxyl radical is 80 ± 1%. Further, the “carcinogenicity (fore-stomach tumour in mice)” value in the series with mice is reported as “carcinogenic”.
